The experiment has as its target D(2) dopamine receptor (Homo sapiens, UniProt P14416). In words: Antagonist activity at dopamine D2 receptor. The format is functional.

The text below walks through data of ChEMBL document CHEMBL1156607, “A new multi-gram synthetic route to labeling precursors for the D(2/3) PET agent 18F-fallypride” (Bioorg Med Chem Lett, 2008).

Chain of D(2) dopamine receptor (P14416 whole entry): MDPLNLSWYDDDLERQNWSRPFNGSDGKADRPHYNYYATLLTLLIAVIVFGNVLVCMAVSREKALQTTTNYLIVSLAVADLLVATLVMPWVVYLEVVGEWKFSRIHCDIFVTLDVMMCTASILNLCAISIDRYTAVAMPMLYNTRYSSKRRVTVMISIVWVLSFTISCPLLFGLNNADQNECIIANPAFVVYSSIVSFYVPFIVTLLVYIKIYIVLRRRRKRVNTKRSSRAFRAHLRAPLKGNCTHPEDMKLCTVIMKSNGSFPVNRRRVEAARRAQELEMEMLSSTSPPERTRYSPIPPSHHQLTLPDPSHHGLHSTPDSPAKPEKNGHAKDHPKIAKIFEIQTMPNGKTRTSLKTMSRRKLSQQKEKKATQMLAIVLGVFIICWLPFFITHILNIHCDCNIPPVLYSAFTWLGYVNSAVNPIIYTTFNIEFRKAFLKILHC

For orientation: IC50 means the concentration that inhibits the measured activity by half. Higher therefore signals a need for much substance. The compound `C=CCN1CCC[C@H]1CNC(=O)c1cc(CCCF)cc(OC)c1OC` [FALLYPRIDE] gave an IC50 of 0.005 µM.
Compound `C=CCN1CCC[C@H]1CNC(=O)c1cc(CCCCl)cc(OC)c1OC` displayed an IC50 of 0.0171 µM.
